Results taken from PubChem BioAssay AID1902 (Broad Institute, 2009).
Active and inactive are the calls of the source.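 Rule for the calls: active = EC50 no more than a set limit of log units above the highest dose; inactive = the rest.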

biological target: S. pyogenes SKKanGAS, kanamycin survival, BacTiterGlo, 6 h; assay: SKKanGAS survival reduction under kanamycin, dose response, streptokinase promoter inhibitor project, SKKanGAS strain, luminescence, dose confirmation (AID 1902);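 note: lower survival reflects blocked streptokinase promoter driving kanamycin resistance gene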

| SMILES | EC50 |
| --- | --- |
| COc1ccc(NC(=O)CN(C)C(=O)/C=C/c2cn(-c3ccccc3)nc2-c2ccc(F)cc2)cc1 | 8.39 µM |
| COc1ccc(-c2sc3ccccc3c2C#CC2(O)CCCCC2)cc1 | 4.58 µM |
| C=CC(C)(C)c1c(O)c(CC=C(C)C)c(O)c2c(=O)c3ccc(O)c(O)c3oc12 | 1.8 µM |
| O=C(Nc1ccc(Cl)c(Cl)c1)Nc1nccs1 | 8.79 µM |
| Cc1cc(C)n(-c2nc(SCC(=O)O)c3c4c(sc3n2)COC(C)(C)C4)n1 | 4.31 µM |
| Cc1[nH]c(N=Nc2ccccc2)nc1N=Nc1ccccc1 | 2.8 µM |
| Cc1cccc(NCc2nc3ccccc3n2Cc2ccccc2)c1 | 2.75 µM |
| Cc1cccc(NC2=NC(C)(C)N=C(N)N2)c1 | 0.109 µM |
| Cc1nc(N)nc(N)c1CCCc1ccc(Cl)c(Cl)c1 | 0.87 µM |
| CC(C)(CN=C1NS(=O)(=O)c2ccccc21)CNC(=O)c1ccccc1 | > 15 µM (inactive) |
| O=C(O)c1ccc(NC(=S)NC(=O)c2cccc(COc3ccccc3)c2)cc1 | 4.45 µM |
| Cc1cc(O)c(C(C)C)cc1C1(c2cc(C(C)C)c(O)cc2C)OC(=O)c2ccccc21 | 1.8 µM |
| C/C(=N\Nc1nc(N2CCCCCC2)nc(N2CCCCCC2)n1)c1ccccc1 | 3.69 µM |
| O=C(NC(=S)Nc1ccccc1N1CCCCC1)c1ccc(F)cc1Cl | 3.4 µM |
| C[C@@]12CCC=C[C@H]1[C@H](c1ccc3ccccc3c1Br)N(Cc1ccccc1)C2=O | 3.63 µM |
| O=[N+]([O-])c1ccc(NC(=S)NCCc2ccc(Cl)cc2)cc1 | 1.73 µM |
| COc1ccccc1C(=O)NNC(=S)NC(=O)c1ccco1 | 0.383 µM |
| COc1ccccc1N1CCN(C(=O)/C=C/c2c(Cl)nc3ccccn23)CC1 | 1.6 µM |
| CC(C)CN(Cc1cc(=O)oc2cc3c(cc12)CCCC3)CC(C)C | 7.82 µM |
| Cc1onc(-c2c(Cl)cccc2Cl)c1C(=O)NC1C(=O)N2C1SC(C)(C)C2C(=O)O (configuration not stated) | < 0.06 µM |
| CC1CCN(c2nc(-c3ccc(F)cc3)cc(C(F)(F)F)n2)CC1 | 1.71 µM |
| O=C(c1cccs1)N1CCC(c2nc3c(nnn3Cc3ccccc3Cl)c(=O)[nH]2)CC1 | 7.09 µM |

| SMILES | EC50 |
| --- | --- |
| C/C(=N\NC(=O)c1cc2ccccc2cc1O)c1cccs1 | 12.5 µM |
| Cc1ccc2nc(-c3ccc(N)cc3)sc2c1 | > 15 µM (inactive) |
| O=c1cc(CSc2ccc(Cl)cc2)nc(-c2ccccn2)[nH]1 | 0.371 µM |
| O=C(Nc1ccc(Cl)c(Cl)c1)N1CC=C(c2ccccc2)CC1 | 8.08 µM |
| COc1ccc(-c2oc3ncn(Cc4ccco4)c(=N)c3c2-c2ccc(OC)cc2)cc1 | 4.76 µM |
| COc1ccc(NC(=O)c2c[nH]n3c(=O)cc(C4CCN(C(=O)OC(C)(C)C)CC4)nc23)cc1Cl | 3.8 µM |
| O=S(=O)(Nc1ccc(O)c(Sc2nc3ccccc3s2)c1)c1cccc2ccccc12 | 3.09 µM |
| CCc1ccccc1OCC(=O)Nc1nc(-c2cccnc2)cs1 | 1.05 µM |
| Cc1ccccc1-c1cc(C(=O)Nc2sc(C(=O)OC(C)C)c(C)c2C#N)c2ccccc2n1 | 5.49 µM |
| Cc1cccc(Nc2nnc(-c3ccc(N4CCOCC4)c([N+](=O)[O-])c3)c3ccccc23)c1 | 4.52 µM |
| Cc1ccsc1C(=O)N(c1nc2ccccc2s1)c1c(C)cccc1C | 4 µM |
| O=[N+]([O-])c1cc(S(=O)(=O)Nc2ccccc2)ccc1N1CCN(c2ccccc2)CC1 | 7.21 µM |
| COc1ccc(OCC(=O)NNC(=S)NC(=O)C2CC2)cc1 | 4.11 µM |
| O=C(Nc1ccc(N2CCCC2)c(S(=O)(=O)Nc2cccc(C(F)(F)F)c2)c1)c1cccs1 | 3.95 µM |
| Brc1cc2c(cc1C1Nc3ccccc3C3C=CCC31)OCO2 (configuration not stated) | 5.37 µM |
| Cc1nn(Cc2c(Cl)cccc2Cl)c(C)c1NC(=O)c1cn(-c2ccccc2)nc1-c1ccccc1 | 9.33 µM |
| Nc1nonc1-c1nc2ccccc2n1CC(=O)N/N=C\c1ccc(-c2ccc(Cl)cc2)o1 | 1.07 µM |
| Cc1cc(/C=C2\C(=N)N3N=C(S(C)(=O)=O)SC3=NC2=O)c(C)n1Cc1ccccc1 | 4.77 µM |
| COc1ccc(C(=O)NC(=S)NNC(=O)[C@H]2C[C@@H]2c2ccccc2)cc1OC | 0.914 µM |
| [O-][n+]1cccc2c(Br)cc(Br)c(O)c21 | 0.55 µM |
| COc1ccc(Nc2nc(NN)nc(Nc3ccc(OC)cc3)n2)cc1 | 6.02 µM |
| Nc1ccc(C#Cc2ccc3oc4ccccc4c(=O)c3c2)cc1 | 1.39 µM |

| SMILES | EC50 |
| --- | --- |
| O=C(NCC1CCCO1)c1cc2c([nH]c3ccccc32)c(-c2cccc(Cl)c2)n1 (configuration not stated) | 4.27 µM |
| COc1ccc(-c2sc3ccc(OC)cc3c2C#CCCO)cc1 | 9.27 µM |
| COc1ccc(C(=O)c2ccc(N3CCN(C4CC(=O)NC4=O)CC3)cc2)cc1F (configuration not stated) | 2.76 µM |
| Cc1[nH]n(-c2ccc(Br)cc2)c(=O)c1/C=N/NC(=O)c1ccccc1 | 0.428 µM |
| CCC(C)(C)c1ccc(OCCCC[n+]2cccc(C)c2)c(C(C)(C)CC)c1 | 7.73 µM |
| CCOc1cc(/C=C2\C(=O)N(c3nc(-c4ccc(Br)cc4)cs3)N=C2c2ccccc2)ccc1O | 1.77 µM |
| Cc1cccc2sc(NNC(=O)c3ccc(S(=O)(=O)N4CCc5ccccc5C4)cc3)nc12 | 0.368 µM |
| Cc1ccc(C)n1-c1sc2c(c1C#N)CCC(C)C2 (configuration not stated) | 2.35 µM |
| COc1ccc([N+](=O)[O-])cc1NC(=S)NC(NC(=O)C(c1ccccc1)c1ccccc1)C(Cl)(Cl)Cl (configuration not stated) | 12 µM |
| CCOC(=O)C1=C(C)N=c2s/c(=C/c3ccc(OCC(=O)O)c(OC)c3)c(=O)n2C1c1ccc(Cl)cc1 (configuration not stated) | 5 µM |
| CCC(=O)N(CCC(Cc1ccccc1)c1ccc2c(c1)OCO2)Cc1ccccc1F (configuration not stated) | 6.5 µM |
| COc1ccc([C@H]2Oc3cc(O)cc(O)c3C(=O)C2[C@@H]2C(=O)c3c(O)cc(O)cc3O[C@@H]2c2ccc(OC)cc2)cc1 (some centres not stated) | 1.61 µM |
| COc1cc(/C=N/Nc2ncnc3sc4c(c23)CCC4)ccc1O | 2.11 µM |
| COc1ccc(CN(C)S(=O)(=O)c2nnc(NC(=O)c3ccccc3Br)s2)cc1 | 3.51 µM |
| Cc1nc(-n2[nH]c3c(c2=O)CCCC3)[nH]c(=O)c1Cc1ccccc1 | 1.39 µM |
| COc1ccc(OC)c(NC(=O)NCc2cccnc2)c1 | > 15 µM (inactive) |
| O=C(CCC(=O)Nc1ccc(Br)cc1)N/N=C/c1ccccc1O | 5.07 µM |
| COCCSc1ccccc1C(=O)N1CCCC(C)C1 (configuration not stated) | > 15 µM (inactive) |
| Nc1[nH]n2c(=O)cc(-c3ccccc3)nc2c1N=Nc1ccccc1 | 1.83 µM |
| NNC(=O)CSc1nc(-c2ccccc2)nc2c1CCCC2 | > 15 µM (inactive) |
| Cc1ccccc1OCC(=O)NC(=S)Nc1ccc(Br)c(C)n1 | > 15 µM (inactive) |
| COc1cccc(/C=N/NC(=O)c2c(C)nc3ccc(Cl)cn23)c1O | 5.63 µM |

| SMILES | EC50 |
| --- | --- |
| CCCCCC(=O)NNC(=O)c1c(O)c2ccccc2n(CC)c1=O | 1.36 µM |
| Cc1cc(C)cc(NS(=O)(=O)c2ccc(NC(=S)NC(=O)c3cccs3)cc2)c1 | 6.32 µM |
| Cc1c(Cl)c([N+](=O)[O-])nn1Cc1ccc(C(=O)N/N=C\c2cc(Cl)ccc2O)o1 | 1.48 µM |
| O=C(CSc1ccc2ccccc2n1)N/N=C/c1ccccc1O | 2.12 µM |
| Oc1c(Cl)cc(Cl)cc1C(C#Cc1ccccc1)N1CCOCC1 (configuration not stated) | 12.2 µM |
| Cc1cc(/C=N/n2cnnc2)c(C)n1-c1ccc(OCc2ccc(Cl)cc2)cc1 | 6.19 µM |
| O=C1C(Nc2ccc(O)cc2)=C/C(=N/S(=O)(=O)c2cccs2)c2ccccc21 | 1.97 µM |
| Cc1[nH][nH]c(=O)c1C(c1c(C)[nH][nH]c1=O)c1cn(Cc2ccc(Cl)c(Cl)c2)c2ccccc12 | 3.07 µM |
| CC(C)C1OC2c3cccc4cccc(c34)C2N1c1ccccc1 (configuration not stated) | 2.57 µM |
| CCOC(=O)c1sc(NC(=O)Nc2ccc(Cl)cc2)cc1C | 10.1 µM |
| CCOc1ccccc1NC(=O)c1nc(S(=O)(=O)Cc2cccc(C)c2)ncc1Cl | 11.1 µM |
| CCCCN(C)S(=O)(=O)c1ccc(C(=O)Nc2nnc(-c3cccs3)o2)cc1 | 0.941 µM |
| O=C(O)c1ccc2c3c(ncnc13)-c1ccccc1C2=O | 5.26 µM |
| COc1ccccc1-n1c(SCC(=O)Nc2ccc(C)cc2)nc(O)cc1=O | 13.6 µM |
| Cc1ccc(NC(=S)NC(=O)c2ccc(-c3ccc(Cl)cc3)o2)c(O)c1 | 0.531 µM |
| O=C(CSc1nnc(NC(=O)c2ccccc2)s1)NCC1CCCO1 (configuration not stated) | > 15 µM (inactive) |
| CN(C)CCCn1c(SCC(=O)Nc2nc(-c3cccc(Br)c3)cs2)nc2ccccc2c1=O | 4.73 µM |
| COc1cccc(-c2cc(C(F)(F)F)nc(N3CCC(C)CC3)n2)c1 | 7.06 µM |
| CCOC(=O)Nc1ccc(OCc2nnc3c4ccccc4c(C)nn23)cc1 | < 0.06 µM |
| CCOC(=O)c1cc(-c2cccs2)nc2c1c(C)nn2-c1ccccn1 | 2.64 µM |
| COc1cc(C(=O)NC(=S)N(CCc2ccccc2)CCc2ccccc2)cc(OC)c1OC | 0.328 µM |
| Cc1nn(C(=O)c2cccnc2)c(C)c1Sc1ccc(Br)cc1 | 4.36 µM |

| SMILES | EC50 |
| --- | --- |
| CCCCCCn1c(=O)c(C(=O)N/N=C/c2cccc(F)c2)c(O)c2ccccc21 | 2.11 µM |
| CCc1cccc2c(C(=O)COC(=O)c3ccc([N+](=O)[O-])s3)c[nH]c12 | 0.735 µM |
| CN(/N=C/c1cc(Br)cc(Br)c1O)c1cccc(C(F)(F)F)n1 | 0.544 µM |
| CC(C)Nc1cc(C(C)(C)C)nc2c(-c3ccccc3)cnn12 | 4.42 µM |
| CC1CC(C)CN(Cc2nc(N)nc(Nc3ccc4ccccc4c3)n2)C1 (configuration not stated) | 1.41 µM |
| Cc1cc2n(n1)C(c1c[nH]c3ccccc13)Nc1ccccc1-2 (configuration not stated) | 7.65 µM |
| CCCCCCCCCCCCCCCC[N+](C)(C)CC | 2.19 µM |
| CN1C(=O)/C(=C/c2ccccc2F)Sc2ccc(C(=O)N3CCCC3)cc21 | 1.06 µM |
| CCCCCc1ccc(OCCOCCn2c[n+](C)c3ccccc32)c(CCCCC)c1 | 5.79 µM |
| O=C(NCc1ccc(F)cc1)C(=O)Nc1nc(C23CC4CC(CC(C4)C2)C3)cs1 | 0.637 µM |
| O=C(NNC(=S)Nc1ccc(Cl)c(Cl)c1)c1ccccn1 | 1.66 µM |
| Cc1nn(-c2ccccc2)c(C)c1/C=N/NC(=O)c1cc(-c2ccc(Br)s2)[nH]n1 | 4.23 µM |
| Cc1cccc(C)c1OCC(O)CN1CCC(CN2C(=O)c3cccc4cccc(c34)C2=O)CC1 (configuration not stated) | 7.35 µM |
| NC1CCN(c2c(F)cc3c(=O)c(C(=O)O)cn(C4CC4)c3c2Cl)C1 (configuration not stated) | 0.064 µM |
| Cc1ccc(NC(=O)CN2C(=O)S/C(=C/c3ccc(-c4cc(C(=O)O)ccc4C)o3)C2=O)cc1C | 2.11 µM |
| Cc1csc(NC(=O)COCC(=O)O)c1-c1nc2ccccc2s1 | 6.45 µM |
| Cc1ccc(/C=C2/Sc3ccc(C(=O)N4CCN(c5ccccn5)CC4)cc3NC2=O)cc1 | 1.91 µM |
| Cc1ccnc(NC(=S)N2CCN(c3cccc(C(F)(F)F)c3)CC2)c1 | 1.65 µM |
| COc1ccc(C(=O)NNC(=S)NC(=O)c2ccc(Br)o2)cc1OC | 0.779 µM |
